Source: patent US10214529B2, “Small molecules for the treatment of primary cancer and cancer metastasis” (THE BOARD OF REGENTS OF THE UNIVERSITY OF TEXAS SYSTEM, priority 2015, dated 2019)

Legend:
[1] = test system: MDA-MB-231 human breast cancer cells; assay: Transwell cell migration assay; type: cell-based; conditions: MDA-MB-231 cells, 18-20 hr
Method: (§1) MDA-MB-231 cells were grown in McCoy's 5A Modified Media (Gibco) supplemented with 10% FBS (Hyclone). Py8119 cells were grown in F12K nutrient media (Gibco) supplemented with 5% Fetal Clone II (Fisher Scientific). All cell lines were incubated in a 5% CO2 incubator at 37° C.
Migration assays were performed in transwell membrane filter inserts in 24-well tissue culture plates (BD Biosciences San Jose, Calif., USA). The transwell membrane filter inserts contained 6.5-mm diameter, 8-μm pore size, […] polycarbonate membranes. Five-hundred microliter breast cancer cell suspensions were added to the upper side of the inserts at a density of 10×10^4 cells/insert and 750 μl CM with or without other compounds was added to the lower wells. Cells were incubated at 37° C. for 18-20 hr. […] The number of migrated cells in 5 fields of view per insert was counted under a light microscope at magnification 10×.

MDA-MB-231 cells [2] = assay: Soft agar colony formation assay (anchorage independent cell growth); type: cell-based, human; conditions: 50 μM compound, about 2 weeks
Method: as §1
For anchorage-independent cell growth, MDA-MB-231 cells were plated in 0.4% agarose with complete medium supplemented with 50 μM compound (P1 to P10) on top of a 0.8% agarose base supplemented with complete medium. Cells were maintained for about 2 weeks before staining with p-iodonitrotetrazolium violet (Sigma-Aldrich, St. Louis, Mo.). Images were captured by using a scanner and the numbers of colonies were counted.

MDA-MB-231 cells [3] = assay: Mammary fat pad xenograft assay; type: in vivo; conditions: after 15 days; 500 μl of a 400 μM solution, IP three times a week; MDA-MB-231 xenograft in nude mice
Text: Four-week-old female athymic nude mice (Harlan Sprague-Dawley, Indianapolis, Ind., USA) were used for the mammary fat pad injections. Four- to five-week old female C57bl/6 mice were used for the intratibial injections. Animals were maintained under the care and supervision of the Laboratory Animal Research facility at the University of Texas Health Science Center, San Antonio, Tex. The animal protocol was approved and monitored by the Institutional Animal Care and Use Committee.
MDA-MB-231 cells were injected subcutaneously in the mammary fat pad of 4-week-old female nu/nu athymic nude mice. Each mouse received bilateral subcutaneous inoculation in both the left and right inguinal mammary fat pad areas with 100 μl of cell suspension containing ˜1×10^7 cells/ml in serum-free media. Animals were randomly assigned to 3 different groups, and solid tumors were allowed to form up to about 5 mm^3 volume before treatments began. Compound P3 400 μmol/500 μl saline, or saline as a control was administered intraperitoneally (IP) three times a week for 3 weeks. The growth of xenograft tumors was monitored twice a week and tumor size was measured with a caliper in two dimensions. Tumor volumes were calculated with the equation V=(L×W^2)×0.5 (mm^3), where L is length and W is width of a tumor.

SMILES: CCCn1c(=O)c2nc(-c3ccc(OCc4nc5ccccc5[nH]4)cc3)[nH]c2n(CCC)c1=O [Compound P2]
- inhibitory effects on cell migration [1]: inhibitory effects
- decrease in cell colonies as compared to control (MDA-MB-231 cells [2]): 30%

SMILES: CCCn1c(=O)c2nc(-c3ccc(OCc4nc5cc(C(F)(F)F)ccc5[nH]4)cc3)[nH]c2n(CCC)c1=O [Compound P3]
- reduction in the tumor size compared to control mice (MDA-MB-231 cells [3]): more than 50%
- inhibitory effects on cell migration [1]: inhibitory effects
- decrease in cell colonies as compared to control (MDA-MB-231 cells [2]): 65%

SMILES: CCCn1c(=O)c2nc(-c3ccc(OCc4nc5cc(F)ccc5[nH]4)cc3)[nH]c2n(CCC)c1=O [Compound P4]
- inhibitory effects on cell migration [1]: inhibitory effects

SMILES: CCCn1c(=O)c2nc(-c3ccc(OCc4nc5cc(C)ccc5[nH]4)cc3)[nH]c2n(CCC)c1=O [Compound P5]
- inhibitory effects on cell migration [1]: inhibitory effects

SMILES: CCOc1ccc(-c2nc3c(N)ncnc3n2CC2CCC2)cc1 [Compound P9]
- inhibitory effects on cell migration [1]: inhibitory effects
